In US7884071B2, “Administration form for pharmaceutically active peptides with sustained release and method for the production thereof” (Zentaris GmbH, priority 2002, dated 2011):
Where a name gives a salt, the structure may show the parent alone. Where a SMILES comes first, the peptide text is derived from it. [ ]: non-standard residue; d: D form. dPhe(4-Cl) = N[C@H](Cc1ccc(Cl)cc1)C(=O)O; d2Nal = N[C@H](Cc1ccc2ccccc2c1)C(=O)O; d(hCit) = NC(=O)NCCCC[C@@H](N)C(=O)O; NMeY = CN[C@@H](Cc1ccc(O)cc1)C(=O)O; d3Pal = N[C@H](Cc1cccnc1)C(=O)O; Nle = CCCC[C@H](N)C(=O)O

Assay: Fig. 6: Physicochemical data on D-63 153
Excerpt: Table printed on a drawing sheet, Fig. 6
Title: Fig. 6: Physicochemical data on D-63 153
First reader's note: Unruled property list for a single peptide; the value of 'Structural formula:' is a chemical drawing and is left empty.

SMILES: CCCC[C@H](NC(=O)[C@@H](CCCCNC(N)=O)NC(=O)[C@H](Cc1ccc(O)cc1)N(C)C(=O)[C@H](CO)NC(=O)[C@@H](Cc1cccnc1)NC(=O)[C@@H](Cc1ccc(Cl)cc1)NC(=O)[C@@H](Cc1ccc2ccccc2c1)NC(C)=O)C(=O)N[C@@H](CCCNC(=N)N)C(=O)N1CCC[C@H]1C(=O)N[C@H](C)C(N)=O [D-63153 (e.g. acetate salt), Ac-D-Nal(2)-D-Cpa-D-Pal(3)-Ser-N-Me-Tyr-D-Hci- Nle-Arg-Pro-D-Ala-NH2] (Ac-[d2Nal][dPhe(4-Cl)][d3Pal]S[NMeY][d(hCit)][Nle]RP[dA]-NH2)
- Solubility:: 0.75 mg/ml in water
